Patent publication US20060241175A1, “Vehicle for topical delivery of anti-inflammatory compounds” (priority 2002, published 2006)
≈ marks a conversion by molar mass, not a printed value. Read-outs that look alike come from different tables or passages of the source.

Legend:
physchem = settings: organic solvent or mixture, thermodynamic from solid
[1] = in olive or corn oil; cited from earlier work

| solubility (physchem; solubility) [mg/mL] | solubility (physchem; maximum solubility) [mg/mL] | SMILES | solubility [1] |
| --- | --- | --- | --- |
| 2.9 to 3.2 (≈ 8.75 to 9.66 mM) |  | CN1C(C(=O)Nc2ccccn2)=C(O)c2ccccc2S1(=O)=O [Piroxicam] | below 0.05% |
|  | 160 (≈ 447 mM) | COc1ccc2c(c1)c(CC(=O)O)c(C)n2C(=O)c1ccc(Cl)cc1 [Indomethacin] | below 0.2% |
